From paper PMC12692861, “Biotin-Linked Ursolic Acid Conjugates as Selective Anticancer Agents and Target-Identification Tools for Cancer Therapy” (Molecules, 2025)

How the values were obtained:
Assay in all cases: Streptavidin pulldown proteomics (LC-MS/MS), 5637 cells
Assay type in all cases: binding
Conditions in all cases: 5637, 50 µM
ATP synthase subunit O = ATP synthase subunit O (Homo sapiens, UniProt P48047)
Protocol: (§1) We used proteomics to identify potential molecular targets of 5c. A pulldown assay with streptavidin-agarose-coated magnetic beads was performed. Briefly, 5637 and MB49 cells were incubated with 50 µM 5c for 10 min and 1 h. After incubation, the cells were rinsed three times with cold phosphate-buffered saline (PBS), and cell lysates were prepared and clarified by centrifugation to remove cellular debris, including nuclei. The clarified lysates were incubated with streptavidin-coated magnetic beads to selectively bind biotinylated contents. Bound proteins were separated from unbound proteins through thorough bead washing. Proteins attached to the beads were eluted and analyzed on an Orbitrap Fusion Tribrid mass spectrometer (Thermo Scientific, New York, NY, USA) coupled with an Ultimate 3000 nano-UPLC system. Samples were trapped on a PepMap100 C18 trap column (5 µm, 0.3 × 5 mm) and separated on a PepMap RSLC C18 column (2 µm, 75 µm × 150 mm) using a gradient from 2 to 40% acetonitrile with 0.1% formic acid over 120 min at […] and 40 °C. MS data were acquired in positive mode using data-dependent acquisition (DDA), with precursor scans at 120,000 FWHM (400–2000 m/z), and MS/MS scans in top-speed mode (3 s cycle) using HCD fragmentation (NCE 32%). Proteins were identified and quantified based on peptide spectral matches (PSMs), and fold enrichment compared to controls was calculated to evaluate interaction strength.
(§2) The 5637 and MB49 cells were cultured and treated with higher concentrations of 5c (50 µM) for short period of times (10 min & 60 min) followed by whole cell lysis (WCL) preparation of both treated and untreated cells using modified RIPA buffer [NaCl (100mM), TrisCl (20mM, pH 7.4), EDTA (10 mM), TritonX-100 (0.5%), Glycerol (5%), Protease inhibitor cocktail (1x)] with gentle continuous rotation. The protein content of each WCL was estimated using Pierce™ BCA Protein Assay kit (Thermo-Scientific # 23225). The 100 µL of resuspended Dynabeads™ MyOne™ Streptavidin C1 (Invitrogen # 65001) were washed with PBST (PBS with 0.01% Tween™20) in a magnet stand as recommended in the manufacturer’s instructions. The washed beads were incubated with 200 µg of each WCL in separate tubes at room temperature for 2 h in a gentle end-over-end mixing. After incubation, beads were washed 3–5 times with PBST (0.01% Tween-20) on a magnetic stand and beads were decanted by after spinning and magnetization. The samples were stored at −80 °C till further analysis using LC-MS/MS by the Proteomics and Mass Spectrometry Core Laboratory of Augusta University.

[1] = molecular target: ATP synthase subunit alpha (Homo sapiens, UniProt P25705)
Protocol: as §1, §2

[2] = molecular target: ATP synthase subunit beta (Homo sapiens, UniProt P06576)
Protocol: as §1, §2

[3] = molecular target: D-3-phosphoglycerate dehydrogenase (Homo sapiens, UniProt O43175)
Protocol: as §1, §2

[4] = molecular target: Elongation factor 1-beta (EF1β) (Homo sapiens, UniProt P24534)
Elongation factor 1-beta (EF1β), sequence (P24534 whole entry): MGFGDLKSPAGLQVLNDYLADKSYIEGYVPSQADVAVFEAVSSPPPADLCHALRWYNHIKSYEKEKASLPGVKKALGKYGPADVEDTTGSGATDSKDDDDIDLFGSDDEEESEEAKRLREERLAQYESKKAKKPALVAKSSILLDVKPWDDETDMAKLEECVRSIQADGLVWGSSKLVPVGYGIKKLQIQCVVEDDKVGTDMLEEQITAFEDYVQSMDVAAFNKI
Protocol: as §1, §2

[5] = molecular target: Elongation factor 1-delta (EF1δ) (Homo sapiens, UniProt P29692)
Elongation factor 1-delta (EF1δ), sequence (P29692 whole entry): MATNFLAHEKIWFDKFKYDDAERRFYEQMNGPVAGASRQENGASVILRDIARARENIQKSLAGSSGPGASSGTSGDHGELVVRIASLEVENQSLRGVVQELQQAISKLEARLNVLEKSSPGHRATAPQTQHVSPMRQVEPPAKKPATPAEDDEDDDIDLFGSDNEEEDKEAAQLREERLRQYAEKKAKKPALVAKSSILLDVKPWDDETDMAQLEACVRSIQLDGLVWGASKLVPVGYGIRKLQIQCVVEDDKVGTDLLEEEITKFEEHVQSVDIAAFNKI
Protocol: as §1, §2

[6] = molecular target: Elongation factor 1-gamma (EF1γ) (Homo sapiens, UniProt P26641)
Protocol: as §1, §2

[7] = molecular target: Elongation factor 2 (eEF2) (Homo sapiens, UniProt P13639)
Protocol: as §1, §2

[8] = molecular target: Eukaryotic translation initiation factor 5B (eIF5B) (Homo sapiens, UniProt O60841)
Protocol: as §1, §2

Filamin-A (FLNA) = Filamin-A (FLNA) (Homo sapiens, UniProt P21333)
Filamin-A (FLNA), sequence (P21333 whole entry): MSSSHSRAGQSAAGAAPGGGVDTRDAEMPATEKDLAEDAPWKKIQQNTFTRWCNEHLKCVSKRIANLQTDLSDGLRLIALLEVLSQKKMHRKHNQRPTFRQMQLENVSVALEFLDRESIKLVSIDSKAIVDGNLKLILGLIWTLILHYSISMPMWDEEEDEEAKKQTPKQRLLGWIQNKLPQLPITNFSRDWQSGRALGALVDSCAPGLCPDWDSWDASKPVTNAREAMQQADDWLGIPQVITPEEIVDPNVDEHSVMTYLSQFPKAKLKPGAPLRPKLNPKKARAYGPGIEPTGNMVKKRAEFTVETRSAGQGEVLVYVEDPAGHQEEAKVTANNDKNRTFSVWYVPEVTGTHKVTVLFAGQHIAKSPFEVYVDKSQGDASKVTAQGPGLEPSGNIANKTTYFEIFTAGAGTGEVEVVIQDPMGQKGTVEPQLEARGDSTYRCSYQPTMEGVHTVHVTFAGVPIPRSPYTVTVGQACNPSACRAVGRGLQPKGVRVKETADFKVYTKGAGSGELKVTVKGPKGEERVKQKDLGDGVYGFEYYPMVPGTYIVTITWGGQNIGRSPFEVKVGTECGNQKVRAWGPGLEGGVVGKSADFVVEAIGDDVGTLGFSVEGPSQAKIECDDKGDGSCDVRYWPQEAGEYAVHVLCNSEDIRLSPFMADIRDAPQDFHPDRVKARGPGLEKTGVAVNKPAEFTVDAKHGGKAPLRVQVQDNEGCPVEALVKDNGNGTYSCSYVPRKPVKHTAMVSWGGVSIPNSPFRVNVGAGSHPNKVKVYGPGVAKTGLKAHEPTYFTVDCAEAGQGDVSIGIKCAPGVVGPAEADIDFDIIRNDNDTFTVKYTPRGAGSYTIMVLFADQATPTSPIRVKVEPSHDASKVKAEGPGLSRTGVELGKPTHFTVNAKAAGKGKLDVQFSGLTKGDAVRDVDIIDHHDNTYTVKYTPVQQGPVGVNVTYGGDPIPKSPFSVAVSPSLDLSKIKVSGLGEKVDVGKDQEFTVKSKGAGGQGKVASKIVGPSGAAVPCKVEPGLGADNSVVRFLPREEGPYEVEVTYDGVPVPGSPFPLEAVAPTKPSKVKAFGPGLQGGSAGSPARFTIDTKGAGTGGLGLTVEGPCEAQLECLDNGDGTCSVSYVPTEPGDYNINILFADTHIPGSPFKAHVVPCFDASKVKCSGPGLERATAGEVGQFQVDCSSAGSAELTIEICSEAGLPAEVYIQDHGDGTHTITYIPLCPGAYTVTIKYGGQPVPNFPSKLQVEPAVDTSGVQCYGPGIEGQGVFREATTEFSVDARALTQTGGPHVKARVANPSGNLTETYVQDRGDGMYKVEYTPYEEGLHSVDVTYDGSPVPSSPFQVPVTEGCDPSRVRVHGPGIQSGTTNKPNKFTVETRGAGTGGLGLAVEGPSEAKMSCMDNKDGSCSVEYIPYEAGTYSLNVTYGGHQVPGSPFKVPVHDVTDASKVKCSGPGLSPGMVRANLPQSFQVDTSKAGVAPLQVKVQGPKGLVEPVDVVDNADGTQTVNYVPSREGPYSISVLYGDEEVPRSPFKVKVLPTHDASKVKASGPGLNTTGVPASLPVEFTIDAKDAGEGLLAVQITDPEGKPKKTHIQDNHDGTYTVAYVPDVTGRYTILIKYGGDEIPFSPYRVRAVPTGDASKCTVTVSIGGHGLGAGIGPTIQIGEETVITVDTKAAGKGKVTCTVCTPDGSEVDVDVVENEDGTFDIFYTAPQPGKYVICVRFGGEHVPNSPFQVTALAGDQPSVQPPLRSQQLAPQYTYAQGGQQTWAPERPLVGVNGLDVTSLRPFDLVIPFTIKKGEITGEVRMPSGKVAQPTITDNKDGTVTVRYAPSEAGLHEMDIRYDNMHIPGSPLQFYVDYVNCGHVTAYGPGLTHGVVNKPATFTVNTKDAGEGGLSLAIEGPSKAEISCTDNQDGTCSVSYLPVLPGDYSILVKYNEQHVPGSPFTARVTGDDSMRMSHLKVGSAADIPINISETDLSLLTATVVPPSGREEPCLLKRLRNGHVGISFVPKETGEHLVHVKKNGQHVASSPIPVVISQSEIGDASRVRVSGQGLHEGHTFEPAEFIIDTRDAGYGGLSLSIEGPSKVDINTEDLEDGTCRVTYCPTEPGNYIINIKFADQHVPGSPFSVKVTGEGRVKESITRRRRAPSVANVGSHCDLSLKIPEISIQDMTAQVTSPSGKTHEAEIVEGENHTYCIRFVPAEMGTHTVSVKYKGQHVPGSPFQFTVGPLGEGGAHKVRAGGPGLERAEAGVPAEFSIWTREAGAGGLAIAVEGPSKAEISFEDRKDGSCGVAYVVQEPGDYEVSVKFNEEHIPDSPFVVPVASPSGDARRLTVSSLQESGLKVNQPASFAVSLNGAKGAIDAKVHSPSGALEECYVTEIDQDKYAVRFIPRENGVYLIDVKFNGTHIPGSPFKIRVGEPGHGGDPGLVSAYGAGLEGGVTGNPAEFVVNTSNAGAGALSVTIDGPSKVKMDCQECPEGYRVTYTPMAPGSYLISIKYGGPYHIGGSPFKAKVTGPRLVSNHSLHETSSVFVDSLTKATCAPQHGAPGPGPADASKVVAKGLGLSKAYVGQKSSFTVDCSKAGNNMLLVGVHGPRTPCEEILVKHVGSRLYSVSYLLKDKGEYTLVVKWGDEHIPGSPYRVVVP
Protocol: as §1, §2

HSC 71 = HSC 71 (Homo sapiens, UniProt P11142)
HSC 71, sequence (P11142 whole entry): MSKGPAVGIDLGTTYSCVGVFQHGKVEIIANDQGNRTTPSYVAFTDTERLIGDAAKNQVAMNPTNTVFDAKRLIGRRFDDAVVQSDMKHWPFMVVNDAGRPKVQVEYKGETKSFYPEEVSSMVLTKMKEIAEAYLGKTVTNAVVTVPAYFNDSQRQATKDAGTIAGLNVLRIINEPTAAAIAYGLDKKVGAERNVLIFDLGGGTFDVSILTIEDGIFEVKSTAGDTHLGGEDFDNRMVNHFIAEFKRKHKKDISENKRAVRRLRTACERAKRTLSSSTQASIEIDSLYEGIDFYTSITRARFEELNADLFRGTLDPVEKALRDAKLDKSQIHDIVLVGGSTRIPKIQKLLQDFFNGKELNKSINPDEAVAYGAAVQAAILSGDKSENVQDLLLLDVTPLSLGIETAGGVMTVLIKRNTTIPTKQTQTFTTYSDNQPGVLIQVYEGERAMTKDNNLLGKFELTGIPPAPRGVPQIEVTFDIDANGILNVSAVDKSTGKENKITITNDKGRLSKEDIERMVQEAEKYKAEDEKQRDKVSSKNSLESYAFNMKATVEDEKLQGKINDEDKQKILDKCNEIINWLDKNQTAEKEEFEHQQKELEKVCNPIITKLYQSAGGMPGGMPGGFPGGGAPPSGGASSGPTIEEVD
Protocol: as §1, §2

HSP 90-alpha (HSP90α) = HSP 90-alpha (HSP90α) (Homo sapiens, UniProt P07900)
Protocol: as §1, §2

HSP 90-beta (HSP90β) = HSP 90-beta (HSP90β) (Homo sapiens, UniProt P08238)
HSP 90-beta (HSP90β), sequence (P08238 whole entry): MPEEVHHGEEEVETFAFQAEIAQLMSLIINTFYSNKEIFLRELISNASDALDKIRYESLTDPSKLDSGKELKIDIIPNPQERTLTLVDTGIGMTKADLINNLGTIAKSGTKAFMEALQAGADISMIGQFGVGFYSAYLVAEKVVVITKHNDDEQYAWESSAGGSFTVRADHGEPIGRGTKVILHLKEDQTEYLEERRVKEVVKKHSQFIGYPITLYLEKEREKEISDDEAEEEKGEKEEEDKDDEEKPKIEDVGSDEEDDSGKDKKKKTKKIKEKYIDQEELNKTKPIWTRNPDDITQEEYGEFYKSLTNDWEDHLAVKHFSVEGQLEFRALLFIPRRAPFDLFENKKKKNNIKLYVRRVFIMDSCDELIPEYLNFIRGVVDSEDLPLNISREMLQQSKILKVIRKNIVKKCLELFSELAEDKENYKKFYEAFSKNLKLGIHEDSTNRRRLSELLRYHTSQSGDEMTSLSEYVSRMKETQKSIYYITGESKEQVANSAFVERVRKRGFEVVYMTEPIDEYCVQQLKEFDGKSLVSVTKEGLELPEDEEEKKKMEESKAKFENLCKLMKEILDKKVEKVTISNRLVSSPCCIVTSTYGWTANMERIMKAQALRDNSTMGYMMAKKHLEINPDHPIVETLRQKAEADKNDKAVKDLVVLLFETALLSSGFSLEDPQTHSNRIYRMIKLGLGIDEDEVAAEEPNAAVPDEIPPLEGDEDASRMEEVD
Protocol: as §1, §2

[9] = molecular target: Heterogeneous nuclear ribonucleoprotein U (HNRNPU) (Homo sapiens, UniProt Q00839)
Protocol: as §1, §2

[10] = molecular target: Histone H2A type 2-C (HIST2H2AC) (Homo sapiens, UniProt Q16777)
Protocol: as §1, §2

Histone H2A.Z = Histone H2A.Z (Homo sapiens, UniProt P0C0S5)
Histone H2A.Z, sequence (P0C0S5 whole entry): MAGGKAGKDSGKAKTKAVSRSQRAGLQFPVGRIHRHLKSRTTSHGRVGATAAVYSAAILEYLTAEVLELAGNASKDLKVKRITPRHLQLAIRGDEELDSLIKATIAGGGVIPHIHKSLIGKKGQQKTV
Protocol: as §1, §2

Histone H2B type 1-M = Histone H2B type 1-M (Homo sapiens, UniProt Q99879)
Protocol: as §1, §2

Histone H4 = Histone H4 (Homo sapiens, UniProt P62805)
Protocol: as §1, §2

[11] = molecular target: Ras GTPase-activating-like protein IQGAP1 (Homo sapiens, UniProt P46940)
Protocol: as §1, §2

[12] = molecular target: Receptor of activated protein C kinase 1 (RACK1) (Homo sapiens, UniProt P63244)
Protocol: as §1, §2

[13] = molecular target: Ribosomal L1 domain-containing protein 1 (RSL1D1) (Homo sapiens, UniProt O76021)
Protocol: as §1, §2

[14] = molecular target: Splicing factor U2AF 65 kDa subunit (U2AF65) (Homo sapiens, UniProt P26368)
Protocol: as §1, §2

CC1CCC2(C(=O)OCCCCOC(=O)CCCCC3SCC4NC(=O)NC43)CCC3(C)C(=CCC4C5(C)CCC(O)C(C)(C)C5CCC43C)C2C1C [Compound 5c, 4-((5-((3aS,4S,6aR)-2-Oxohexahydro-1H-thieno [3,4-d]imidazol-4-yl)pentanoyl)oxy) butyl 3-hydroxy-urs-12-en-28-oate]
Fold Change 10 min/Ctrl (ATP synthase subunit O): 3
Fold Change 1 h/Ctrl (ATP synthase subunit O): 3
Fold Change 10 min/Ctrl [1]: 1.63
Fold Change 1 h/Ctrl [1]: 2
Fold Change 10 min/Ctrl [2]: 3.29
Fold Change 1 h/Ctrl [2]: 5
Fold Change 10 min/Ctrl [3]: 15
Fold Change 1 h/Ctrl [3]: 10
Fold Change 10 min/Ctrl [4]: 2.35
Fold Change 1 h/Ctrl [4]: 2.35
Fold Change 10 min/Ctrl [5]: 8
Fold Change 1 h/Ctrl [5]: 7
Fold Change 1 h/Ctrl [6]: 6
Fold Change 10 min/Ctrl [7]: 44
Fold Change 1 h/Ctrl [7]: 50
Fold Change 10 min/Ctrl [8]: 32
Fold Change 1 h/Ctrl [8]: 34
Fold Change 10 min/Ctrl (Filamin-A (FLNA)): 16
Fold Change 1 h/Ctrl (Filamin-A (FLNA)): 18
Fold Change 10 min/Ctrl (HSC 71): 5.25
Fold Change 1 h/Ctrl (HSC 71): 6.25
Fold Change 10 min/Ctrl (HSP 90-alpha (HSP90α)): 119
Fold Change 1 h/Ctrl (HSP 90-alpha (HSP90α)): 111
Fold Change 10 min/Ctrl (HSP 90-beta (HSP90β)): 93
Fold Change 1 h/Ctrl (HSP 90-beta (HSP90β)): 97
Fold Change 10 min/Ctrl [9]: 4.33
Fold Change 1 h/Ctrl [9]: 4.33
Fold Change 10 min/Ctrl [10]: 3.48
Fold Change 1 h/Ctrl [10]: 3.04
Fold Change 10 min/Ctrl (Histone H2A.Z): 5.85
Fold Change 1 h/Ctrl (Histone H2A.Z): 4.78
Fold Change 10 min/Ctrl (Histone H2B type 1-M): 3.16
Fold Change 1 h/Ctrl (Histone H2B type 1-M): 1.37
Fold Change 10 min/Ctrl (Histone H4): 13.23
Fold Change 1 h/Ctrl (Histone H4): 11.08
Fold Change 10 min/Ctrl [11]: 3.5
Fold Change 1 h/Ctrl [11]: 2.25
Fold Change 10 min/Ctrl [12]: 6
Fold Change 1 h/Ctrl [12]: 6
Fold Change 10 min/Ctrl [13]: 5
Fold Change 1 h/Ctrl [13]: 4
Fold Change 10 min/Ctrl [14]: 14
Fold Change 1 h/Ctrl [14]: 10
